Measured values taken from ChEMBL document CHEMBL5154802, “Leveraging Structure-Based Drug Design to Identify Next-Generation MAT2A Inhibitors, Including Brain-Penetrant and Peripherally Efficacious Leads” (J Med Chem, 2022).
Active and inactive are the calls of the source. No cut-off for these calls is given here.

Tests used:
[1] = biological target: T1, S-adenosylmethionine synthase isoform type-2 (Homo sapiens, UniProt P31153); experiment: Inhibition of recombinant human MAT2A expressed in baculovirus infected Sf9 cells assessed as S-adenosyl methionine production using L-methionine as substrate preincubated for 60 mins followed by substrate addition and measured after 60 mins in presence of ATP relative to control
Target sequence in this assay (P31153 whole entry, looked up, canonical isoform): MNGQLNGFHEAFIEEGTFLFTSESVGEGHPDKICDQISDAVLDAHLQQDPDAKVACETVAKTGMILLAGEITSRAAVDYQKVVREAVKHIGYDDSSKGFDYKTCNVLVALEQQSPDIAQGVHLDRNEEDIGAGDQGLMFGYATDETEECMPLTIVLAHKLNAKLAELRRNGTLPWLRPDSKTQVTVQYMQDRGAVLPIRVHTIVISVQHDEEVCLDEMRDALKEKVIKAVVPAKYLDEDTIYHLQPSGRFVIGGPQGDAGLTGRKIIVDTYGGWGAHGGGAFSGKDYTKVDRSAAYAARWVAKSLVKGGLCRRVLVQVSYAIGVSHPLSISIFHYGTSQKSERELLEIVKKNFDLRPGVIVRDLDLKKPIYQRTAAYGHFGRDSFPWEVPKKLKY

[2] = biological target: T1, S-adenosylmethionine synthase isoform type-2; experiment: Inhibition of recombinant human MAT2A expressed in baculovirus infected Sf9 cells assessed as S-adenosyl methionine production using L-methionine as substrate preincubated for 60 mins followed by substrate addition and measured after 60 mins in presence of ATP
Target sequence in this assay (P31153 whole entry, canonical isoform): as the sequence (P31153 whole entry, looked up, canonical isoform) above

[3] = biological target: T1, S-adenosylmethionine synthase isoform type-2; experiment: Inhibition of […] in MTAP-null human HCT-116 cells after 72 hrs by LC-MS/MS analysis; format: cell-based, HCT116-MTAP null
Target sequence in this assay (P31153 whole entry, canonical isoform): as the sequence (P31153 whole entry, looked up, canonical isoform) above

[4] = biological target: T1, S-adenosylmethionine synthase isoform type-2; experiment: Inhibition of […] in MTAP-null human HCT-116 cells after 72 hrs by LC-MS/MS analysis relative to control; format: cell-based; conditions: HCT116-MTAP null
Target sequence in this assay (P31153 whole entry, looked up, canonical isoform): as above

PXR (NR1I2) = biological target: T2, PXR (NR1I2) (Homo sapiens, UniProt O75469); experiment: Transactivation of human PXR transfected in HepG2 cells assessed as CYP450 induction by measuring fold activation at 10 uM by luciferase reporter gene assay; format: ADME, cell-based; conditions: HepG2 cells transfected with human PXR, read-out: FC
T2 sequence (O75469 whole entry): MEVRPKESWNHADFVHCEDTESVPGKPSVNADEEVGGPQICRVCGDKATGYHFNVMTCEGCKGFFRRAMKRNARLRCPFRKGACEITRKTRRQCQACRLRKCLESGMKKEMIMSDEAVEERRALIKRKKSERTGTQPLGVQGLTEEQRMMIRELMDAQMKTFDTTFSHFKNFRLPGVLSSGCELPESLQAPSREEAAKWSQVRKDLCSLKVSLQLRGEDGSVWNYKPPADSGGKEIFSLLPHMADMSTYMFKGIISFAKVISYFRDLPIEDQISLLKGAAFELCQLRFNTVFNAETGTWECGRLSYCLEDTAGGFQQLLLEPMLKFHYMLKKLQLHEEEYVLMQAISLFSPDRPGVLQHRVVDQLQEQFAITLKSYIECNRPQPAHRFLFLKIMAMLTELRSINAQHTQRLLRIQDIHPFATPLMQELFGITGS

[5] = Ratio of drug concentration in brain to plasma of mouse at 10 mg/kg, po measured at 1 to 4 hrs post dose; format: ADME, organism-based; conditions: brain and plasma, time 1-4 hrs
[6] = In vivo inhibition of MAT2A in human HCT116-MTAP null cells xenografted po dosed nu/nu mouse model assessed as plasma exposure required for reduction in tumor SAM level; format: functional
KP-4 = experiment: Antitumor activity against human KP-4 cells xenografted in CB17-SCID mouse assessed as tumor growth inhibition […] at 30 to 60 mg/kg, po QD for 13 days; format: functional, organism-based; conditions: dose 30-60 mg/kg, time 13.0 day
[7] = Inhibition of MAT2A in human HCT116-MTAP null cells xenografted po dosed nu/nu mouse model assessed as plasma exposure required for reduction in periphery SAM level; format: functional
HCT116-MTAP null = experiment: Antitumor activity against human HCT116-MTAP null cells xenografted in nu/nu mouse assessed as inhibition of tumor […] at 10 to 30 mg/kg, po QD for 21 days; format: functional, organism-based; conditions: dose 10-30 mg/kg, time 21.0 day

COc1ccc(-n2cc3cnc(NCC4CC4)nc3c(-c3ccc(Br)cc3)c2=O)cc1
Imax [1]: 88%
IC50 [2]: 54 nM

CCCNc1ncc2cn(-c3ccc(OC)cc3)c(=O)c(-c3ccc(Br)cc3)c2n1
Imax [1]: 73%
IC50 [2]: 48 nM

CCNc1ccc2cn(-c3ccc4nn(C)cc4c3)c(=O)c(-c3ccc(Cl)cc3)c2n1
IC50 [3]: 10 nM
Imax [4]: 81%

Cn1cc2cc(-n3cc4ccc(OCC(F)(F)F)nc4c(-c4ccc(Cl)cc4)c3=O)ccc2n1
IC50 [3]: 32 nM
Imax [4]: 82%

COc1ccc(N2Cc3cnc(NCC4CC4)nc3C3(CCN(Cc4ccsc4)C3)C2=O)cc1 (configuration not stated)
Imax [1]: 38%
IC50 [2]: 510 nM

COc1ccc(N2Cc3cnc(NCC4CC4)nc3C3(CCN(Cc4cc[nH]c4)C3)C2=O)cc1 (configuration not stated)
Imax [1]: 34%
IC50 [2]: 2010 nM

COc1ccc(-n2cc3cnc(NCC(F)(F)F)nc3c(-c3ccc(Cl)cc3)c2=O)cc1
IC50 [3]: 113 nM
Imax [4]: 83%

CCNc1ncc2cn(-c3ccc(OC)cc3)c(=O)c(-c3ccc(Br)cc3)c2n1
Imax [1]: 91%
IC50 [2]: 34 nM

Cn1cc2cc(-n3cc4ccc(NCC(F)(F)F)nc4c(-c4ccc(Cl)cc4)c3=O)ccc2n1
IC50 [3]: 11 nM
Imax [4]: 82%

Cn1cc2cc(-n3cc4ccc(OCC(F)F)nc4c(-c4ccc(Cl)cc4)c3=O)ccc2n1
fold induction at 10 µM (PXR (NR1I2)): 3.8
IC50 [3]: 13 nM
Imax [4]: 88%

COc1ccc(N2Cc3cnc(NCC4CC4)nc3C3(CCN(Cc4ccon4)C3)C2=O)cc1 (configuration not stated)
Imax [1]: 50%
IC50 [2]: 530 nM

COc1ccc(N2Cc3cnc(NCC4CC4)nc3C3(CCN(Cc4cc[nH]n4)C3)C2=O)cc1 (configuration not stated)
Imax [1]: 88%
IC50 [2]: 690 nM

Cn1cnc2ccc(-n3cc4cnc(NCC(F)(F)F)nc4c(-c4ccc(Cl)cc4)c3=O)cc21
IC50 [3]: 31 nM
Imax [4]: 80%

COc1ccc(-n2cc3cnc(NCCC(F)(F)F)nc3c(-c3ccc(Br)cc3)c2=O)cc1
Imax [1]: 69%
IC50 [2]: 325 nM

O=c1c(-c2ccc(Br)cc2)c2nc(NCC(F)(F)F)ncc2cn1-c1ccc2ncccc2c1
Kp [5]: 0.1
fold induction at 10 µM (PXR (NR1I2)): 5.3
IC50 [3]: 46 nM
Imax [4]: 84%

COc1ccc(N2Cc3cnc(NCC4CC4)nc3C3(CCN(Cc4cn[nH]c4)C3)C2=O)cc1 (configuration not stated)
Imax [1]: 60%
IC50 [2]: 7830 nM

Cc1nc(NCC2CC2)nc2c1COCC21CCN(Cc2ccccc2F)C1 (configuration not stated)
Imax [1]: 46%
IC50 [2]: 7200 nM

COc1ccc(N2Cc3cnc(NCC4CC4)nc3C3(CCN(Cc4cscn4)C3)C2=O)cc1 (configuration not stated)
Imax [1]: 62%
IC50 [2]: 610 nM

COc1ccc(N2Cc3cnc(NCC4CC4)nc3C3(CCN(Cc4ccccc4F)C3)C2=O)cc1 (configuration not stated)
Imax [1]: 38%
IC50 [2]: 320 nM

O=c1c(-c2ccc(Cl)cc2)c2nc(NCC(F)(F)F)ncc2cn1-c1ccc2ncccc2c1
IC50 [3]: 79 nM
Imax [4]: 83%

COc1ccc(-n2cc3cnc(NCC(F)(F)F)nc3c(-c3ccc(Br)cc3)c2=O)cc1
Imax [1]: 94%
fIC50 [6]: 10.2 nM
IC50 [2]: 22 nM
Activity (KP-4): Active
IC50 [3]: 34 nM
Imax [4]: 84%

Cn1cc2cc(-n3cc4cnc(NCC(F)(F)F)nc4c(-c4ccc(Cl)cc4)c3=O)ccc2n1
fIC50 [6]: 1.8 nM
IC50 [3]: 14 nM
Imax [4]: 80%
fIC50 [7]: 2 nM
Activity (HCT116-MTAP null): Active

CCOc1ccc2cn(-c3ccc4nn(C)cc4c3)c(=O)c(-c3ccc(Cl)cc3)c2n1
fIC50 [6]: 9.8 nM
IC50 [3]: 23 nM
Imax [4]: 89%

COc1ccc(N2Cc3c(C)nc(NCC4CC4)nc3C3(CCN(Cc4ccccc4F)C3)C2=O)cc1 (configuration not stated)
Imax [1]: 50%
IC50 [2]: 250 nM

Cn1cc2cc(-n3cc4ccc(CCC(F)(F)F)nc4c(-c4ccc(Cl)cc4)c3=O)ccc2n1
IC50 [3]: 101 nM
Imax [4]: 76%

COc1ccc(N2Cc3cnc(NCC4CC4)nc3C3(CCN(Cc4cnc(N)s4)C3)C2=O)cc1 (configuration not stated)
Imax [1]: 38%
IC50 [2]: 410 nM

COc1ccc(-n2cc3cnc(N(C)CC(F)(F)F)nc3c(-c3ccc(Br)cc3)c2=O)cc1
Imax [1]: 71%
IC50 [2]: 3310 nM

Cc1nc2ccc(-n3cc4cnc(NCC(F)(F)F)nc4c(-c4ccc(Cl)cc4)c3=O)cc2n1C
IC50 [3]: 21 nM
Imax [4]: 80%
